Patent US20030079246A1, “Herbicide resistant plants” (priority 1999, published 2003)
Where a name gives a salt, the structure may show the parent alone.

Target: mutant form of rice EPSPS
Test: EPSPS enzyme assay, inhibition of purified mutant rice EPSPS by glyphosate
Type: biochemical
Description: The resultant products are gel purified and placed into a tube in eqi-molar concentrations to serve as a template for another round of PCRs with the rice 5′ and 3′ oligos. The resultant products are cloned into pCRBlunt II using Invitrogens Zero Blunt TOPO kit. It is confirmed that the DNA sequence of the insert and its predicted open reading frame correspond to that of the predicted mature chloroplastic rice EPSPS protein (with the exception of the presence of an initiating Met) and also that the desired changes (the specific mutation of T to I and P to S at specific positions in the EPSPS sequence) are encoded. The thus cloned and verified rice epsps sequence is excised using Nde 1 and Xho 1 and the purified fragment cloned into pET24a (Novagen) digested similarly. The recombinant clones are introduced into BL21 (DE3), a codon optimised RP strain of E.coli supplied by Strategene. The EPSPS protein is expressed in this strain following addition of 1 mM IPTG to the fermenter medium (LB supplemented with 100 ug/ml Kanamycin). […]

O=C(O)CNCP(=O)(O)O [potassium salt of glyphosate]
IC50 (at 40 μM PEP, 2 mM shikimate-3-Pi): ~600 µM
Ki (mutant EPSPS, read-out: estimated Ki value): ~200 µM
